Some test systems named below: UO-31 renal; RPMI-8226 leukemia; SK-MEL-28 melanoma; BT-549 breast; SK-MEL-2 melanoma; DU-145 prostate; NCI/ADR-RES ovarian; PC-3 prostate; NCI-H460 lung; HCC-2998 colon.
Common to all, as to assay: NCI tumour cell line growth inhibition, 48 h

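Five concentrations, 48 hours, 96-well plates. Abbreviation: GI50, concentration required for 50% inhibition of growth. TGI is the concentration that stops growth completely.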 Some results are limits rather than exact numbers.

For the molecule `CC1(C)N=C(N)N=C(N)N1c1ccc(OCCCCNC(=O)Nc2cccc(S(=O)(=O)F)c2)c(Cl)c1`, the GI50 was 40.5 µM in the assay on UO-31 renal; 3 µM in the assay on RPMI-8226 leukemia; 6.04 µM in the assay on SK-MEL-28 melanoma; 12.5 µM in the assay on BT-549 breast; 13.6 µM in the assay with SK-MEL-2 melanoma; 3.83 µM with DU-145 prostate. Besides, the GI50 in the assay with NCI/ADR-RES ovarian is over 100 µM; in the assay on PC-3 prostate, 0.0995 µM; with NCI-H460 lung it was 0.377 µM; in the assay on HCC-2998 colon it was 5.22 µM. Besides, the TGI is over 100 µM in the assay on UO-31 renal; 93.3 µM with RPMI-8226 leukemia; over 100 µM with SK-MEL-28 melanoma; over 100 µM in the assay with BT-549 breast; over 100 µM in the assay with SK-MEL-2 melanoma; over 100 µM in the assay with DU-145 prostate. The TGI is over 100 µM in the assay with NCI/ADR-RES ovarian, over 100 µM in the assay with PC-3 prostate, 25.3 µM in the assay with NCI-H460 lung and over 100 µM in the assay with HCC-2998 colon.

As to `Nc1n[nH]c2ccc([C@@H]3Nc4c(F)cc5[nH]ncc5c4[C@H]4C5CCC(C5)[C@@H]34)cc12` (stereo not given in full), the GI50 in the assay with UO-31 renal was 0.587 µM; in the assay on RPMI-8226 leukemia it was 0.472 µM; in the assay with SK-MEL-28 melanoma, 2.19 µM; in the assay with BT-549 breast it was 0.374 µM; in the assay with SK-MEL-2 melanoma, 0.598 µM; in the assay with DU-145 prostate, 0.419 µM. In addition, the GI50 with NCI/ADR-RES ovarian is 0.234 µM; in the assay on PC-3 prostate, 0.331 µM; with NCI-H460 lung it was 0.352 µM; in the assay on HCC-2998 colon it was 0.39 µM. Further, the TGI is over 52.6 µM in the assay with UO-31 renal; 24.6 µM in the assay with RPMI-8226 leukemia; over 60.7 µM with SK-MEL-28 melanoma; over 31.8 µM in the assay with BT-549 breast; over 44.3 µM with SK-MEL-2 melanoma; over 46.2 µM in the assay on DU-145 prostate. Also, the TGI in the assay with NCI/ADR-RES ovarian was 5.84 µM; in the assay with PC-3 prostate it was over 46.2 µM; with NCI-H460 lung, over 31.9 µM; in the assay on HCC-2998 colon, 22.2 µM.

As to `CN1CC[C@]23c4c5ccc(O)c4OC2c2[nH]ncc2C[C@H]3[C@H]1C5` (stereo not given in full), the TGI with UO-31 renal, in the assay with RPMI-8226 leukemia, with SK-MEL-28 melanoma, with BT-549 breast, in the assay on SK-MEL-2 melanoma and in the assay on DU-145 prostate was over 100 µM throughout. The TGI with NCI/ADR-RES ovarian, in the assay with PC-3 prostate, with NCI-H460 lung and in the assay on HCC-2998 colon was over 100 µM each time.

As for `O=[N+]([O-])c1ccc(/C=C\c2ccc3c(c2)OCO3)c([N+](=O)[O-])c1`, the TGI in the assay with UO-31 renal amounted to 54.5 µM; in the assay on RPMI-8226 leukemia, 19.2 µM; in the assay with SK-MEL-28 melanoma, 32.3 µM; in the assay on BT-549 breast, 34.2 µM; in the assay on SK-MEL-2 melanoma, 35.3 µM; with DU-145 prostate, 47 µM. Also, the TGI in the assay on NCI/ADR-RES ovarian came out at 81.6 µM; with PC-3 prostate, 63.4 µM; in the assay on NCI-H460 lung, 54.5 µM; in the assay on HCC-2998 colon it was 27.6 µM.

With `CCN(CCNc1ccc(C)c2sc3cc(Cl)ccc3c(=O)c12)CC(C)(C)O`, the GI50 in the assay with UO-31 renal is 1.3 µM; in the assay on RPMI-8226 leukemia, 3.86 µM; in the assay on SK-MEL-28 melanoma, 2.09 µM; in the assay on BT-549 breast, 18.7 µM; in the assay on SK-MEL-2 melanoma it was 3.28 µM; with DU-145 prostate, 13.1 µM. Besides, the GI50 with NCI/ADR-RES ovarian was 6.37 µM; with PC-3 prostate, 12 µM; in the assay on NCI-H460 lung, 2.33 µM; with HCC-2998 colon, 2.02 µM. In addition, the TGI was 3.53 µM in the assay with UO-31 renal; 22.2 µM in the assay with RPMI-8226 leukemia; 4.34 µM with SK-MEL-28 melanoma; over 100 µM in the assay with BT-549 breast; 14.2 µM with SK-MEL-2 melanoma; 40.6 µM in the assay on DU-145 prostate. For the same molecule, the TGI with NCI/ADR-RES ovarian is 30.5 µM; in the assay on PC-3 prostate, over 100 µM; in the assay on NCI-H460 lung it was 5 µM; with HCC-2998 colon, 4.08 µM.

Regarding `Cc1ccccc1CNc1c2ccccc2nc2ccccc12`, the GI50 in the assay on UO-31 renal was 1.33 µM; in the assay with RPMI-8226 leukemia, 1.52 µM; in the assay with SK-MEL-28 melanoma, 2.15 µM; with BT-549 breast it was 2.18 µM; in the assay with SK-MEL-2 melanoma it was 2.01 µM; in the assay with DU-145 prostate it was 2.91 µM. The GI50 with NCI/ADR-RES ovarian is 2.07 µM; with PC-3 prostate it was 1.88 µM; in the assay on NCI-H460 lung, 1.86 µM; with HCC-2998 colon, 1.73 µM. Also, the TGI in the assay on UO-31 renal is 3.91 µM; with RPMI-8226 leukemia, 4.56 µM; in the assay on SK-MEL-28 melanoma, 5.02 µM; in the assay with BT-549 breast, 6.15 µM; in the assay on SK-MEL-2 melanoma, 4.19 µM; in the assay on DU-145 prostate, 10.1 µM. Further, the TGI with NCI/ADR-RES ovarian was 6.16 µM; in the assay on PC-3 prostate it was 8.79 µM; in the assay with NCI-H460 lung, 4.71 µM; with HCC-2998 colon, 3.65 µM.

As to `Cc1n(Cc2ccc3ccccc3n2)cc[n+]1Cc1ccc2ccccc2c1`, the GI50 in the assay with UO-31 renal is 13.6 µM; in the assay with RPMI-8226 leukemia, 0.376 µM; in the assay with SK-MEL-28 melanoma, 0.975 µM; with BT-549 breast, 0.64 µM; with SK-MEL-2 melanoma, 0.522 µM; in the assay with DU-145 prostate, 2.08 µM. The GI50 was over 100 µM in the assay on NCI/ADR-RES ovarian, 0.467 µM in the assay on PC-3 prostate, 0.659 µM in the assay with NCI-H460 lung and 0.819 µM with HCC-2998 colon. The TGI in the assay on UO-31 renal was 36.1 µM; with RPMI-8226 leukemia it was 6.63 µM; in the assay with SK-MEL-28 melanoma, 7 µM; in the assay on BT-549 breast it was 4.1 µM; in the assay with SK-MEL-2 melanoma, 2.99 µM; with DU-145 prostate, 14.8 µM. Besides, the TGI was over 100 µM in the assay with NCI/ADR-RES ovarian, 10.6 µM in the assay with PC-3 prostate, 11.2 µM in the assay on NCI-H460 lung and 7.24 µM in the assay on HCC-2998 colon.

In the case of `O=C(CN(/C=C/C(=O)C(F)(F)F)c1ccccc1)c1ccc(F)cc1`, the GI50 with UO-31 renal is 33.8 µM; with RPMI-8226 leukemia it was 19.3 µM; in the assay on SK-MEL-28 melanoma it was 54.8 µM; with BT-549 breast, 31.5 µM; in the assay on SK-MEL-2 melanoma it was 26.3 µM; with DU-145 prostate, 50 µM. The GI50 was 23.6 µM with NCI/ADR-RES ovarian, 29 µM with PC-3 prostate, 22.6 µM in the assay on NCI-H460 lung and 17.8 µM with HCC-2998 colon. Further, the TGI is over 100 µM in the assay with UO-31 renal; 54 µM in the assay on RPMI-8226 leukemia; over 100 µM with SK-MEL-28 melanoma; over 100 µM in the assay with BT-549 breast; 70.1 µM in the assay with SK-MEL-2 melanoma; over 100 µM with DU-145 prostate. Besides, the TGI is 66 µM with NCI/ADR-RES ovarian, over 100 µM in the assay with PC-3 prostate, 59.3 µM in the assay on NCI-H460 lung and 41.6 µM with HCC-2998 colon.

These data come from PubChem BioAssay (NCI).
